ChEMBL document CHEMBL4145540 (Eur J Med Chem, 2018)
pIC50: −log10 of the molar value. Calls of active or inactive are those of the source. The rule behind the calls is not given here.

Experiments:
[1] = system: A549; assay: Cell cycle arrest in human A549 cells assessed as accumulation at S phase at 80 nM after 20 hrs by propidium iodide staining based flow cytometry (reference value: 16 +/- 1%); format: functional
[2] = system: A549; assay: Cell cycle arrest in human A549 cells assessed as accumulation at G0/G1 phase at 80 nM after 20 hrs by propidium iodide staining based flow cytometry (reference value: 66 +/- 1%); format: functional
[3] = system: MCF7; assay: Antiproliferative activity against human MCF7 cells after 2 days by MTT assay; format: functional, cell-based; conditions: MCF7, 48 h
[4] = system: MDA-MB-231; assay: Inhibition of EBI binding to beta-tubulin colchicine binding site in human MDA-MB-231 cells at 3 uM preincubated for 16 hrs followed by EBI addition and measured after 1.5 hrs by Western blot analysis; format: cell-based
[5] = system: A549; assay: Cell cycle arrest in human A549 cells assessed as accumulation at G2/M phase at 80 nM after 20 hrs by propidium iodide staining based flow cytometry (reference value: 11 +/- 1%); format: functional
[6] = system: A549; assay: Induction of apoptosis in human A549 cells after 24 hrs by Annexin V-FITC/propidium iodide staining based flow cytometry; format: functional, cell-based
[7] = system: HMEC-1; assay: Antiproliferative activity against HMEC1 cells after 2 days by MTT assay; format: functional, cell-based; conditions: Homo sapiens, HMEC-1, 48 h
[8] = system: A549; assay: Cell cycle arrest in human A549 cells assessed as accumulation at sub-G0 phase at 80 nM after 20 hrs by propidium iodide staining based flow cytometry (reference value: 6.6 +/- 0.1%); format: functional
[9] = system: HMEC-1; assay: Vascular disruptive activity in HMEC1 cells assessed as disruption of preformed tubular networks after 4 hrs by matrigel based assay; format: functional, cell-based; conditions: Homo sapiens
[10] = system: HEK293; assay: Antiproliferative activity against HEK293 cells after 2 days by MTT assay; format: cell-based; conditions: Homo sapiens, HEK293, 48 h
[11] = system: HeLa; assay: Antiproliferative activity against human HeLa cells after 2 days by MTT assay; format: functional, cell-based; conditions: 48 h
[12] = system: MDA-MB-231; assay: Antiproliferative activity against human MDA-MB-231 cells after 3 days by coulter counting method; format: functional, cell-based; conditions: MDA-MB-231, 72 h
[13] = system: HL-60; assay: Antiproliferative activity against human HL60 cells after 2 days by MTT assay; format: functional, cell-based; conditions: HL-60, 48 h
[14] = system: A549; assay: Induction of apoptosis in human A549 cells at 100 nM after 24 hrs by Annexin V-FITC/propidium iodide staining based flow cytometry (reference value: 28%); format: functional
[15] = system: HT-29; assay: Antiproliferative activity against human HT-29 cells after 2 days by MTT assay; format: functional, cell-based; conditions: HT-29, 48 h
[16] = system: A549; assay: Induction of apoptosis in human A549 cells at 10 nM after 24 hrs by Annexin V-FITC/propidium iodide staining based flow cytometry (reference value: 28%); format: functional
[17] = system: A549; assay: Antiproliferative activity against human A549 cells after 2 days by MTT assay; format: functional, cell-based; conditions: A549, 48 h
[18] = Selectivity index, ratio of IC50 for antiproliferative activity against HEK293 cells to IC50 for antiproliferative activity against human HT-29 cells; format: toxicity, cell-based; conditions: HEK293 cells versus HT-29 cells, read-out: Ratio IC50
[19] = system: A549; assay: Cell cycle arrest in human A549 cells assessed as accumulation at G0/G1 phase at 75 nM after 20 hrs by propidium iodide staining based flow cytometry (reference value: 66 +/- 1%); format: functional
[20] = Selectivity index, ratio of IC50 for antiproliferative activity against HEK293 cells to IC50 for antiproliferative activity against human HL60 cells; format: toxicity, cell-based; conditions: HEK293 cells versus HL60 cells, read-out: Ratio IC50
[21] = system: A549; assay: Cell cycle arrest in human A549 cells assessed as accumulation at G2/M phase at 75 nM after 20 hrs by propidium iodide staining based flow cytometry (reference value: 11 +/- 1%); format: functional
[22] = Selectivity index, ratio of IC50 for antiproliferative activity against HEK293 cells to IC50 for antiproliferative activity against human HeLa cells; format: toxicity, cell-based; conditions: HEK293 cells versus HeLa cells, read-out: Ratio IC50
[23] = system: A549; assay: Cell cycle arrest in human A549 cells assessed as accumulation at S phase at 75 nM after 20 hrs by propidium iodide staining based flow cytometry (reference value: 16 +/- 1%); format: functional
[24] = system: A549; assay: Cell cycle arrest in human A549 cells assessed as accumulation at sub-G0 phase at 75 nM after 20 hrs by propidium iodide staining based flow cytometry (reference value: 6.6 +/- 0.1%); format: functional
[25] = Selectivity index, ratio of IC50 for antiproliferative activity against HEK293 cells to IC50 for antiproliferative activity against human MCF7 cells; format: toxicity, cell-based; conditions: HEK293 cells versus MCF7 cells, read-out: Ratio IC50
[26] = system: A549; assay: Cell cycle arrest in human A549 cells assessed as accumulation at S phase at 200 nM after 20 hrs by propidium iodide staining based flow cytometry (reference value: 16 +/- 1%); format: functional
[27] = system: A549; assay: Cell cycle arrest in human A549 cells assessed as accumulation at G0/G1 phase at 200 nM after 20 hrs by propidium iodide staining based flow cytometry (reference value: 66 +/- 1%); format: functional
[28] = system: A549; assay: Cell cycle arrest in human A549 cells assessed as accumulation at G2/M phase at 200 nM after 20 hrs by propidium iodide staining based flow cytometry (reference value: 11 +/- 1%); format: functional
[29] = system: A549; assay: Cell cycle arrest in human A549 cells assessed as accumulation at sub-G0 phase at 200 nM after 20 hrs by propidium iodide staining based flow cytometry (reference value: 6.6 +/- 0.1%); format: functional
[30] = species on record: Bos taurus; assay: Inhibition of calf brain tubulin polymerization after 60 mins by turbidimetric method
[31] = system: A549; assay: Cell cycle arrest in human A549 cells assessed as accumulation at G2/M phase at 65 nM after 20 hrs by propidium iodide staining based flow cytometry (reference value: 11 +/- 1%); format: functional
[32] = system: A549; assay: Cell cycle arrest in human A549 cells assessed as accumulation at S phase at 65 nM after 20 hrs by propidium iodide staining based flow cytometry (reference value: 16 +/- 1%); format: functional
[33] = system: A549; assay: Disruption of microtubule network in human A549 cells assessed as appearance of tubulin aggregates at 260 nM after 16 hrs by Hoechst staining based immunofluorescence assay; format: cell-based
[34] = system: A549; assay: Cell cycle arrest in human A549 cells assessed as accumulation at sub-G0 phase at 65 nM after 20 hrs by propidium iodide staining based flow cytometry (reference value: 6.6 +/- 0.1%); format: functional
[35] = system: A549; assay: Disruption of microtubule network in human A549 cells assessed as appearance of compressed and fragmented nuclei at 260 nM after 16 hrs by Hoechst staining based immunofluorescence assay; format: cell-based
[36] = system: A549; assay: Cell cycle arrest in human A549 cells assessed as accumulation at G0/G1 phase at 65 nM after 20 hrs by propidium iodide staining based flow cytometry (reference value: 66 +/- 1%); format: functional
[37] = system: A549; assay: Cell cycle arrest in human A549 cells assessed as accumulation at G2/M phase at 750 nM after 20 hrs by propidium iodide staining based flow cytometry (reference value: 11 +/- 1%); format: functional
[38] = system: A549; assay: Cell cycle arrest in human A549 cells assessed as accumulation at sub-G0 phase at 750 nM after 20 hrs by propidium iodide staining based flow cytometry (reference value: 6.6 +/- 0.1%); format: functional
[39] = system: A549; assay: Cell cycle arrest in human A549 cells assessed as accumulation at S phase at 750 nM after 20 hrs by propidium iodide staining based flow cytometry (reference value: 16 +/- 1%); format: functional

Row | Structure (SMILES) | pIC50 [3] | inhibition [4] | Activity [6] | pIC50 [7] | pIC50 [10] | pIC50 [11] | pIC50 [12] | pIC50 [13] | Activity [14] | pIC50 [15] | Activity [16] | pIC50 [17] | selectivity ratio [18] | selectivity ratio [20] | selectivity ratio [22] | selectivity ratio [25] | further results
1 | COc1cccc(OC(=O)Nc2cc(/C=C\c3cc(OC)c(OC)c(OC)c3)ccc2OC)c1 | 8.14 | Active | Dose-dependent effect | 8.30 | 8.09 | 8.47 | 8.10 | 8.31 | 92% | 8.32 | 49% | 6.80 | – | – | – | – | Activity [1]: 16%; Activity [2]: 31%; Activity [5]: 36%; Activity [8]: 17%; Activity [9]: Dose-dependent effect
2 | COc1ccc(/C=C\c2cc(OC)c(OC)c(OC)c2)cc1NC(=O)Oc1ccc(Br)cc1 | 9.12 | Active | Dose-dependent effect | 8.15 | 7.72 | 8.92 | 8.39 | 8.30 | 95% | 8.46 | 36% | 6.82 | 2 to 11 | 2 to 11 | 2 to 11 | 2 to 11 | Activity [19]: 32%; Activity [9]: Dose-dependent effect; Activity [21]: 33%; Activity [23]: 17%; Activity [24]: 19%
3 | COc1ccc(/C=C\c2cc(OC)c(OC)c(OC)c2)cc1NC(=O)Oc1cccc(C)c1 | 7.60 | – | – | 7.30 | 7.40 | 7.64 | 7.87 | 7.17 | – | 7.34 | – | 6.41 | – | – | – | – | Activity [26]: 16%; Activity [27]: 26%; Activity [28]: 36%; Activity [29]: 22%
4 | COc1ccc(/C=C\c2cc(OC)c(OC)c(OC)c2)cc1NC(=O)Oc1cccc(Br)c1 | 8.23 | – | Dose-dependent effect | 7.92 | 7.80 | 8.59 | 7.87 | 8.25 | 90% | 7.95 | 51% | 6.80 | 2 to 11 | 2 to 11 | 2 to 11 | 2 to 11 | Activity [1]: 12%; Activity [2]: 30%; Activity [5]: 39%; inhibition [30]: Active; Activity [8]: 17%
5 | COc1ccc(/C=C\c2cc(OC)c(OC)c(OC)c2)cc1NC(=O)Oc1ccc(F)cc1 | 7.02 | – | – | 7.19 | 6.73 | 7.22 | 7.86 | 7.30 | – | 7.22 | – | 6.40 | 2 to 11 | 2 to 11 | 2 to 11 | 2 to 11 | Activity [26]: 19%; Activity [27]: 26%; Activity [28]: 34%; Activity [29]: 21%
6 | COc1ccc(/C=C\c2cc(OC)c(OC)c(OC)c2)cc1NC(=O)Oc1ccccc1Cl | 8.00 | – | – | 7.30 | 7.39 | 8.30 | 7.86 | 8.43 | – | 7.75 | – | 6.89 | 2 to 11 | 2 to 11 | 2 to 11 | 2 to 11 | Activity [31]: 43%; Activity [32]: 12%; Activity [33]: Active; Activity [34]: 16%; Activity [35]: Active; Activity [36]: 29%
7 | COc1ccc(/C=C\c2cc(OC)c(OC)c(OC)c2)cc1NC(=O)Oc1cccc(C(F)(F)F)c1 | 7.25 | – | – | 7.80 | 7.37 | 7.40 | 7.85 | 8.40 | – | 7.89 | – | 6.89 | – | – | – | – | Activity [31]: 41%; Activity [32]: 15%; Activity [33]: Active; Activity [34]: 16%; Activity [35]: Active; Activity [36]: 28%
8 | COc1ccc(/C=C\c2cc(OC)c(OC)c(OC)c2)cc1NC(=O)Oc1cc(C)cc(C)c1 | 6.68 | – | – | 6.74 | 6.82 | 6.89 | 7.92 | 6.21 | – | 6.59 | – | 5.81 | – | – | – | – | Activity [37]: 38%; Activity [38]: 22%; Activity [39]: 16%
9 | COc1cc2c(c(OC)c1OC)-c1ccc(OC)c(=O)cc1[C@@H](NC(C)=O)CC2 | – | Active | – | – | – | – | – | – | – | – | – | – | – | – | – | – | –
